Laboratory results reported in ChEMBL document CHEMBL4052753, “Antileishmanial potential of fused 5-(pyrazin-2-yl)-4H-1,2,4-triazole-3-thiols: Synthesis, biological evaluations and computational studies” (Bioorg Med Chem Lett, 2017).
Calls of active or inactive are those of the source. The calls are words filed in the database; no cut-off is given here.

Experiments:
[1] = system: Leishmania donovani; assay: Antileishmanial activity against Leishmania donovani NHOM/IN/80/DD8 promastigote forms assessed as reduction in parasite growth after 72 hrs by MTT assay; type: functional; settings: NHOM/IN/80/DD8, 72 h
[2] = Antioxidant activity assessed as DPPH free radical scavenging activity after 30 mins; type: functional
[3] = system: Leishmania donovani; assay: Antileishmanial activity against Leishmania donovani NHOM/IN/80/DD8 promastigote forms assessed as reduction in parasite growth up to 500 uM after 72 hrs by MTT assay; type: functional
[4] = system: HeLa; assay: Cytotoxicity against human HeLa cells at 500 ug/ml after 72 hrs by MTT assay; type: cell-based

IC50 [2] [µM] | SMILES | IC50 [1] [µM] | Activity [3] | Activity [4]
75.9 | Oc1ccc(/C=N/n2c(S)nnc2-c2cnccn2)c(O)c1 | 106 |  | 
52.4 | Sc1nnc(-c2cnccn2)n1/N=C/c1ccccc1 | 95.2 |  | 
58.8 | CCOc1ccc(/C=N/n2c(S)nnc2-c2cnccn2)cc1OC | 190 |  | 
14 | CN(C)c1ccc(/C=N/n2c(S)nnc2-c2cnccn2)cc1 | 113 |  | 
47.7 | CCc1ccc(/C=N/n2c(S)nnc2-c2cnccn2)cc1 | 201 |  | 
69.2 | Oc1ccc2ccccc2c1/C=N/n1c(S)nnc1-c1cnccn1 | 178 |  | 
75.9 | Oc1ccccc1/C=N/n1c(S)nnc1-c1cnccn1 | 102 |  | 
69.2 | Fc1ccc(NC(=S)Nn2c(S)nnc2-c2cnccn2)cc1 | 322 |  | 
58.9 | Oc1ccc(/C=N/n2c(S)nnc2-c2cnccn2)cc1 | 79 |  | Non-Toxic
47.8 | N#Cc1ccc(/C=N/n2c(S)nnc2-c2cnccn2)cc1 | 99 |  | 
81.2 | Sc1nnc(-c2cnccn2)n1/N=C/c1ccc(Cl)cc1Cl | 241 |  | 
58.8 | Fc1ccc(/C=N/n2c(S)nnc2-c2cnccn2)cc1 | 382 |  | 
39.8 | Sc1nnc(-c2cnccn2)n1/N=C/c1ccc(Cl)cc1 | 198 |  | 
72.4 | O=[N+]([O-])c1cccc(/C=N/n2c(S)nnc2-c2cnccn2)c1 | 347 |  | 

More lines, now with the values behind:

SMILES | IC50 [2] [µM] | IC50 [1] [µM] | Activity [3] | Activity [4]
Fc1ccc(NC(=S)Nn2c(S)nnc2-c2cnccn2)c(F)c1 | 58.9 | 176 |  | 
S=C(Nc1ccc(Cl)cc1)Nn1c(S)nnc1-c1cnccn1 | 75.9 |  | inactive | 
Fc1cccc(NC(=S)Nn2c(S)nnc2-c2cnccn2)c1 | 14 | 287 |  | 
S=C(Nc1ccc(Cl)c(Cl)c1)Nn1c(S)nnc1-c1cnccn1 | 81.2 | 229 |  | 
FC(F)(F)c1ccc(NC(=S)Nn2c(S)nnc2-c2cnccn2)cc1 | 58.8 | 289 |  | 
O=C1O[C@H]([C@@H](O)CO)C(O)=C1O [ASCORBIC ACID] | 14 |  |  | 
S=C(Nc1ccccc1)Nn1c(S)nnc1-c1cnccn1 | 58.8 |  | inactive | 
S=C(Nc1ccc2ccccc2c1)Nn1c(S)nnc1-c1cnccn1 | 75.9 | 336 |  | 
S=C(Nc1ccc(Cl)cc1Cl)Nn1c(S)nnc1-c1cnccn1 | 58.9 | 79 |  | 
